# Experimental data as given in patent publication EP2646421B1, “7-NITRO-5-PHENYL-1-(PYRROLIDIN-1-YLMETHYL)-1H-BENZO[E][1,4]DIAZEPIN-2(3H)-ONE AND OTHER BENZODIAZEPINE DERIVATIVES” (Pignataro, Giuseppe, priority 2010, dated 2012).
# Columns and labels:
# Format in all cases: cell-based
# NCX2 = biological target: T1, NCX2 (Rattus norvegicus, UniProt P48768); assay: Patch-clamp electrophysiology (whole-cell NCX currents), BHK-NCX2 cells; conditions: 10 nM, 10 minutes
# T1 construct: expressed in transfected cells
# T1 sequence (P48768 21-921): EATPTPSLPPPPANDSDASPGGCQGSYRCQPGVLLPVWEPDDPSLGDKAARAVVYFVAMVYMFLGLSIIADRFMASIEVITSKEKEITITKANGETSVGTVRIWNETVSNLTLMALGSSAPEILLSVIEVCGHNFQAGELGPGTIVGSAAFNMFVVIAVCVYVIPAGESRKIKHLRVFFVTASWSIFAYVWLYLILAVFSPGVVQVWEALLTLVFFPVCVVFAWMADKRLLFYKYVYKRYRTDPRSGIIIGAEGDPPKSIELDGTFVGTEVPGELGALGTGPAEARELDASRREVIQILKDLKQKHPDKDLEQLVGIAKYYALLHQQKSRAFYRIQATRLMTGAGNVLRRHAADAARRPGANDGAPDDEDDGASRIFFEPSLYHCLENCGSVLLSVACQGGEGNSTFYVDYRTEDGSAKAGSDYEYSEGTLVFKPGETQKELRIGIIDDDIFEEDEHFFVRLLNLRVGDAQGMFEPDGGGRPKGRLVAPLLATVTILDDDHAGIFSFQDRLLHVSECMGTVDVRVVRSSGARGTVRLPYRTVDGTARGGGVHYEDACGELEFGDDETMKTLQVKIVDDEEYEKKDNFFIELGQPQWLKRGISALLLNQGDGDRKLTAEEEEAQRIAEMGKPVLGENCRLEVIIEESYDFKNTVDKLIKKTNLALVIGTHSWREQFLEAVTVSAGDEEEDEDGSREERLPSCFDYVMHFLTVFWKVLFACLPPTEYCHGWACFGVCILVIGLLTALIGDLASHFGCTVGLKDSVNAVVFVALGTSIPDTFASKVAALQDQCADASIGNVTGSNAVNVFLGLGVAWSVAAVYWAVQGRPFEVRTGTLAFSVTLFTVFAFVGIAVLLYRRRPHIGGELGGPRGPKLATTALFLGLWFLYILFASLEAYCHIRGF
# Description: To further investigate the effects of this compound on the Na^+/Ca^2+ exchanger activity, we performed electrophysiological experiments on BHK cells stably transfected with each of NCX isoforms (named BHK-NCX1, BHK-NCX2 and BHK-NCX3).
# The activity of NCX was established by means of three different subclones of baby hamsted kidney (BHK) cells that were stably transfected with one of each NCX isoforms, named BHK-NCX1, BHK-NCX2 and BHK-NCX3. These cell lines were grown on plastic dishes in a mix of DMEM and Ham's F12 media (1:1) (Gibco, Invitrogen, MI, Italy) supplemented with 5% fetal bovine serum, 100 U/ml penicillin, and 100 µg/ml streptomycin (Sigma, St. Louis, Missouri, USA). Cells were cultured in a humidified 5% CO2 atmosphere and at the temperature of 37°C.
# NCX currents (/NCX) was recorded from BHK wild-type and BHK stably transfected cells with NCX1, NCX2, and NCX3 and all each mutated of single isoforrms by patch-clamp technique in whole-cell configuration. […] Data were acquired and analyzed by use of pClamp software (version 9.0, Molecular Devices). In brief, /NCX was recorded starting from a holding potential of -60 mV up to a short-step depolarization at +60 mV (60 ms) (He et al., 2003; Xiao et al., 2004). […] The current recorded in the descending portion of the ramp (from +60 to -120 mV) was used to plot the current-voltage (I-V) relation curve. […]
# rat cortical neurons = assay: Oxygen and glucose deprivation (OGD) followed by reoxygenation; conditions: 10 nM; 3 hours OGD followed by 21 hours of reoxygenation
# Description: The effect of neurounina-1 was evaluated on cell viability by using rat primary cortical neurons obtained as follow. Briefly, cortical neurons were prepared from brains of 1-2 day-old new-born rats, anaesthetizes with halothane in a glass chamber and decapitated. Dissection and dissociation were performed in a Ca^2+-Mg^2+-free PBS containing glucose. The brain was removed from the skull and the cerebral cortex was removed. Cerebral cortex was first digested enzymatically and after dispersed mechanically by trituration. Cellular suspension was plated on coverslips previously pre-coated with poly-D-lysine 1mg/ml and cultured in "Neurobasal" medium containing B27 (1:50) and Glutamax)1:100).
# The oxygen and glucose deprivation (OGD) was used as a model to reproduce in vitro a condition similar to that observed in vivo when a cerebral vessel was occluded as it occurs in stroke. Briefly, cells were incubated in a medium oxygen and glucose-free and containing: NaCl 116 mM, KCI 5.4 mM, MgSO4 0.8 mM, NaHCO3 26.2 mM, NaH2PO4 1 mM, CaCl2 1.8 mM, glycin 0.01 mM e phenol 0.001 mM (w/v) (Molinaro et al., 2008). This medium was previously saturated with 1 atm of a gas containing 95% N2 and 5% CO2 for 20 minutes. […]
# NCX1Δf = biological target: T2, NCX1Δf (Canis lupus familiaris, UniProt P23685, DEL273-712); assay: Na+-dependent Ca2+ influx assay on BHK cells with f-loop deletion mutant; conditions: 10 nM; compared to wild-type NCX3 exposed to the same treatment
# T2 construct: expressed in transfected cells
# T2 sequence (P23685 with tags, fused parts or gaps DEL273-712): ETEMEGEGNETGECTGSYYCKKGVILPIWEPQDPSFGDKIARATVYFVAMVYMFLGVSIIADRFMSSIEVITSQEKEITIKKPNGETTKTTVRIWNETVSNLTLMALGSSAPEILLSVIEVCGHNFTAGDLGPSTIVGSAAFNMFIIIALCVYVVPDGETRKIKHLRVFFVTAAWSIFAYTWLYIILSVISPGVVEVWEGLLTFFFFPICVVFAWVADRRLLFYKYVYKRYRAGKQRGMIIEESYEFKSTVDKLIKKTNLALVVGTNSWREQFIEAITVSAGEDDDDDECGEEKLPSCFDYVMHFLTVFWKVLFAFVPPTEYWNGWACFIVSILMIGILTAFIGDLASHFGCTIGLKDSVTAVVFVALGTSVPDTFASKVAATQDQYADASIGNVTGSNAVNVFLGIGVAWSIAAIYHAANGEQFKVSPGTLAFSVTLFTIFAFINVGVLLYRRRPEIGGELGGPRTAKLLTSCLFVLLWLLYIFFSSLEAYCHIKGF
# Description: In order to establish the molecular determinants of the effect of neurounina-1 on NCX1, we firstly performed a Na^+-dependent Ca^2+ influx assay on BHK cells stably transfected with a mutated NCX1 exchanger (NCX1Δf), in which a large portion of the f loop, region 241-680, was removed by deletion mutagenesis.
# All experiments aimed to identify the binding site of neurounina-1 were performed on BHK cells stably transfected with a single NCX chimera or mutant.
# The activity of the Na^+/Ca^2+ exchanger was measured by means of ^45Ca^2+ radiotracer variations in the cytoplasm of cells exposed to a protocol stimulating the forward or the reverse mode of the antiporter. The BHK cells expressing each mutated or non-mutated NCX isoform were cultured in 12-well dishes and incubated in 145 mM NaCl for 10 minutes and then in a medium containing only 145 mM N-Methyl D-glucamine (NMDG) and 10 µM of ^45Ca^2+. This rapid substitution of the medium from a high level of Na^+ to another one without Na^+ allow the ^45Ca^2+ influx (reverse mode). Before the medium substitution cells was incubated with 1 mM ouabain, a Na^+/K^+ pump inhibitor, and 10 µM monensin, a ionophore for extracellular Na^+. […] The medium was removed and cells were subsequently lysed with 0.1 N NaOH and aliquots were taken to determine radioactivity and protein content.
smiles,measurement,setting,value
"O=C1CN=C(c2ccccc2)c2cc([N+](=O)[O-])ccc2N1CN1CCCC1 [neurounina-1, 7-nitro-5-phenyl-1-(pyrrolidin-1-ylmethyl)-1H-benzo[e][1,4]diazepin-2(3H)-one]",increased forward and reverse activity of NCX2,NCX2,30%
same,cell death of rat cortical neurons,rat cortical neurons,reduced cell death
same,activity of the mutant NCX1Δf,NCX1Δf,significantly increased
